Laboratory results: paper PMC12797171, “Preclinical Evaluation of a ^177Lu-Labeled Gastrin-Releasing Peptide Receptor Antagonist and Prostate Cancer Treatment with Monotherapy and in Combination with Everolimus” (ACS Pharmacology & Translational Science, 2025)
Where “and” joins values, the source holds several entries; their conditions need not be identical. Equal entries are not always repeated.

Tests used:
PC-3 tumors = test: In vivo combination therapy with everolimus in PC-3 tumor bearing mice; design: species or system mouse; details: for Tumor volume, average: 5mg/kg (x3)
From the text: Treatment began once tumors reached the same size threshold used in the monotherapy studies. Animals were divided into three groups (n = 4–5 per group) and received one of the following regimens: • 1.
Monitoring procedures matched those used in the monotherapy experiments.
The procedure is detailed in the supplementary material.
initiation of therapy in the combination treatment studies. Three groups of 5 mice per group were
Both monotherapy and combination

[1] = Morphological assessment / tolerability (H&E of kidney, pancreas, tumor)
Experimental: Selected mouse organs (kidney, pancreas and tumor) were dissected from the sacrificed animals and immediately frozen using liquid nitrogen. Frozen tissue samples were sectioned of 7 μm thickness using a cryostat maintained at – 20 °C to – 25 °C and mounted onto microscope glass slides followed by staining with hematoxylin and eosin for microscopic examination using standard protocols (details in Supporting Information).
Frozen tissue samples (kidney, pancreas and tumor) were sectioned at 7 µm thickness using a cryostat
maintained at −20°C to −25°C and mounted onto microscope glass slides. Sections were air-dried at
room temperature for 15 minutes and subsequently fixed in 4% paraformaldehyde for 10 minutes. After
rinsing in phosphate-buffered saline, slides were stained with hematoxylin for 5 minutes, rinsed in
running tap water and differentiated in 1% acid alcohol followed by bluing in ammonia water. Sections
were then counterstained with eosin for 1 minute and briefly washed in 70% ethanol to remove excess
stain. Slides were dehydrated through graded ethanol (70%, 95%, 100%) and mounted with a permanent
mounting medium. Stained sections were examined using a light microscope.

CO[C@H]1C[C@@H]2CC[C@@H](C)[C@@](O)(O2)C(=O)C(=O)N2CCCC[C@H]2C(=O)O[C@H]([C@H](C)C[C@@H]2CC[C@@H](OCCO)[C@H](OC)C2)CC(=O)[C@H](C)/C=C(\C)[C@@H](O)[C@@H](OC)C(=O)[C@H](C)C[C@H](C)/C=C/C=C/C=C/1C [Everolimus, everolimus]
Median survival (PC-3 tumors; 5 mg/kg/day for 3 days i.p.): 27.5 days and ~27 days
Tumor volume, average (PC-3 tumors; day 0): 100.06 mm3
Tumor volume, average (PC-3 tumors; day 2): 108.59 mm3
Tumor volume, average (PC-3 tumors; day 4): 107.95 mm3
Tumor volume, average (PC-3 tumors; day 6): 97.61 mm3
Tumor volume, average (PC-3 tumors; day 8): 97.18 mm3
Tumor volume, average (PC-3 tumors; day 10): 104.48 mm3
Tumor volume, average (PC-3 tumors; day 12): 131.10 mm3
Tumor volume, average (PC-3 tumors; day 14): 181.07 mm3
Tumor volume, average (PC-3 tumors; day 16): 193.30 mm3
Tumor volume, average (PC-3 tumors; day 18): 241.75 mm3
Tumor volume, average (PC-3 tumors; day 20): 376.61 mm3
Tumor volume, average (PC-3 tumors; day 22): 630.33 mm3
Tumor volume, average (PC-3 tumors; day 24): 524.51 mm3
Tumor volume, average (PC-3 tumors; day 27): 794.32 mm3
Tumor volume, average (PC-3 tumors; day 29): 970.40 mm3
effect on tumor growth (PC-3 tumors; everolimus alone, 5 mg/kg/day for 3 days): moderately delayed tumor growth but did not stop it
Pancreas, microscopic tissue examination ([1]; 5mg/kg (x3)): No obvious lesions
tolerability ([1]; three doses, physical condition and weight): no observable side effects
